In the supplement of paper PMC10307832:

Columns and labels:
Assay in all cases: relative viability (nuclei count vs DMSO), 5 days (fraction); higher = more cells survive
LK-2 = system: LK-2
In short: (§1)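 Relative viability is defined as nuclei in treated wells over nuclei in vehicle wells. Duplicate plates were run and medians reported. Lung cancer cell lines in 1536-well plates were dosed by pin tool one day after seeding, with one drug or with a fixed anchor-drug dose plus five library-drug doses (not always all listed) in √10 steps, and nuclei were counted after 5 days.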

HARA = system: HARA
In short: as §1

SK-LU-1 = system: SK-LU-1
In short: as §1

UMC-11 = system: UMC-11
In short: as §1

NCI-H2009 = system: NCI-H2009
In short: as §1

NCI-H23 = system: NCI-H23
In short: as §1

HCC-78 = system: HCC-78
In short: as §1

NCI-H1734 = system: NCI-H1734
In short: as §1

ABC-1 = system: ABC-1
In short: as §1

NCI-H838 = system: NCI-H838
In short: as §1

ChaGo-K-1 = system: ChaGo-K-1
In short: as §1

LC-2-ad = system: LC-2-ad
In short: as §1

A-427 = system: A-427
In short: as §1

HCC-366 = system: HCC-366
In short: as §1

HCC-15 = system: HCC-15
In short: as §1

COR-L23 = system: COR-L23
In short: as §1

NCI-H1993 = system: NCI-H1993
In short: as §1

NCI-H2405 = system: NCI-H2405
In short: as §1

NCI-H1650 = system: NCI-H1650
In short: as §1

NCI-H1944 = system: NCI-H1944
In short: as §1

NCI-H2023 = system: NCI-H2023
In short: as §1

NCI-H1793 = system: NCI-H1793
In short: as §1

EMC-BAC-2 = system: EMC-BAC-2
In short: as §1

C[C@@H]1CN(CC(=O)Nc2ccc3c(c2)Cc2cccc(-c4cc(=O)cc(N5CCOCC5)o4)c2S3)C[C@H](C)O1 + Nc1ncn([C@H]2C[C@H](O)[C@@H](CO)O2)c(=O)n1 [Decitabine] (partner 2 µM)
relative viability (LK-2; first compound 0.04 µM): 0.258
relative viability (LK-2; first compound 0.1265 µM): 0.279
relative viability (LK-2; first compound 0.4 µM): 0.198
relative viability (LK-2; first compound 4 µM): 0.257
relative viability (HARA; first compound 0.04 µM): 0.594
relative viability (HARA; first compound 0.1265 µM): 0.522
relative viability (HARA; first compound 0.4 µM): 0.454
relative viability (HARA; first compound 4 µM): 0.717
relative viability (SK-LU-1; first compound 0.04 µM): 0.693
relative viability (SK-LU-1; first compound 0.1265 µM): 0.719
relative viability (SK-LU-1; first compound 0.4 µM): 0.646
relative viability (SK-LU-1; first compound 4 µM): 0.59
relative viability (UMC-11; first compound 0.04 µM): 0.477
relative viability (UMC-11; first compound 0.1265 µM): 0.62
relative viability (UMC-11; first compound 0.4 µM): 0.728
relative viability (UMC-11; first compound 4 µM): 0.513
relative viability (NCI-H2009; first compound 0.04 µM): 0.31
relative viability (NCI-H2009; first compound 0.1265 µM): 0.363
relative viability (NCI-H2009; first compound 0.4 µM): 0.383
relative viability (NCI-H2009; first compound 4 µM): 0.34
relative viability (NCI-H23; first compound 0.04 µM): 0.347
relative viability (NCI-H23; first compound 0.1265 µM): 0.266
relative viability (NCI-H23; first compound 0.4 µM): 0.296
relative viability (NCI-H23; first compound 4 µM): 0.334
relative viability (HCC-78; first compound 0.04 µM): 0.65
relative viability (HCC-78; first compound 0.1265 µM): 0.676
relative viability (HCC-78; first compound 0.4 µM): 0.688
relative viability (HCC-78; first compound 4 µM): 0.732
relative viability (NCI-H1734; first compound 0.04 µM): 0.567
relative viability (NCI-H1734; first compound 0.1265 µM): 0.507
relative viability (NCI-H1734; first compound 0.4 µM): 0.474
relative viability (NCI-H1734; first compound 4 µM): 0.574
relative viability (ABC-1; first compound 0.04 µM): 0.303
relative viability (ABC-1; first compound 0.1265 µM): 0.897
relative viability (ABC-1; first compound 0.4 µM): 0.947
relative viability (ABC-1; first compound 4 µM): 1.48
relative viability (NCI-H838; first compound 0.04 µM): 0.46
relative viability (NCI-H838; first compound 0.1265 µM): 0.472
relative viability (NCI-H838; first compound 0.4 µM): 0.518
relative viability (NCI-H838; first compound 4 µM): 0.492
relative viability (ChaGo-K-1; first compound 0.04 µM): 0.498
relative viability (ChaGo-K-1; first compound 0.1265 µM): 0.531
relative viability (ChaGo-K-1; first compound 0.4 µM): 0.56
relative viability (ChaGo-K-1; first compound 4 µM): 0.455
relative viability (LC-2-ad; first compound 0.04 µM): 0.939
relative viability (LC-2-ad; first compound 0.1265 µM): 0.786
relative viability (LC-2-ad; first compound 0.4 µM): 0.792
relative viability (LC-2-ad; first compound 4 µM): 0.628
relative viability (A-427; first compound 0.04 µM): 0.533
relative viability (A-427; first compound 0.1265 µM): 0.605
relative viability (A-427; first compound 0.4 µM): 0.562
relative viability (A-427; first compound 4 µM): 0.587
relative viability (HCC-366; first compound 0.04 µM): 0.347
relative viability (HCC-366; first compound 0.1265 µM): 0.348
relative viability (HCC-366; first compound 0.4 µM): 0.326
relative viability (HCC-366; first compound 4 µM): 0.326
relative viability (HCC-15; first compound 0.04 µM): 0.621
relative viability (HCC-15; first compound 0.1265 µM): 0.594
relative viability (HCC-15; first compound 0.4 µM): 0.558
relative viability (HCC-15; first compound 4 µM): 0.59
relative viability (COR-L23; first compound 0.04 µM): 0.431
relative viability (COR-L23; first compound 0.1265 µM): 0.445
relative viability (COR-L23; first compound 0.4 µM): 0.569
relative viability (COR-L23; first compound 4 µM): 0.612
relative viability (NCI-H1993; first compound 0.04 µM): 0.701
relative viability (NCI-H1993; first compound 0.1265 µM): 0.55
relative viability (NCI-H1993; first compound 0.4 µM): 0.566
relative viability (NCI-H1993; first compound 4 µM): 0.644
relative viability (NCI-H2405; first compound 0.04 µM): 0.878
relative viability (NCI-H2405; first compound 0.1265 µM): 0.814
relative viability (NCI-H2405; first compound 0.4 µM): 0.728
relative viability (NCI-H2405; first compound 4 µM): 0.803
relative viability (NCI-H1650; first compound 0.04 µM): 0.492
relative viability (NCI-H1650; first compound 0.1265 µM): 0.44
relative viability (NCI-H1650; first compound 0.4 µM): 0.488
relative viability (NCI-H1650; first compound 4 µM): 0.499
relative viability (NCI-H1944; first compound 0.1265 µM): 0.438
relative viability (NCI-H1944; first compound 0.4 µM): 0.466
relative viability (NCI-H1944; first compound 4 µM): 0.457
relative viability (NCI-H2023; first compound 0.04 µM): 0.197
relative viability (NCI-H2023; first compound 0.1265 µM): 0.227
relative viability (NCI-H2023; first compound 0.4 µM): 0.225
relative viability (NCI-H2023; first compound 4 µM): 0.224
relative viability (NCI-H1793; first compound 0.04 µM): 0.536
relative viability (NCI-H1793; first compound 0.1265 µM): 0.552
relative viability (NCI-H1793; first compound 0.4 µM): 0.503
relative viability (NCI-H1793; first compound 4 µM): 0.526
relative viability (EMC-BAC-2; first compound 0.04 µM): 0.887
relative viability (EMC-BAC-2; first compound 0.1265 µM): 1.05
relative viability (EMC-BAC-2; first compound 0.4 µM): 0.948
relative viability (EMC-BAC-2; first compound 4 µM): 0.827
